Experimental data reported in patent US20260356810A1, “NOVEL PIPERAZINE-BASED SULFONAMIDES AND THEIR USE AS NEUROPROTECTIVE AND/OR NEURORESTORATIVE AGENTS” (GENECODE, priority 2022, published 2026).

Target: T1, GFRα1-RET (Homo sapiens, UniProt P56159)
T1 construct: expressed in transfected cells; host or cells: MG87 murine fibroblast
Experiment: Luciferase assay: activation of Elk1 signaling in reporter-gene cells expressing GFRα1-RET (MG87 murine fibroblast stably transfected with PathDetect Elk-1, GFRα1, and RET)
Type: cell-based
Conditions: Table 4; MG87 murine fibroblasts with PathDetect Elk-1, GFRα1, RET; 6 concentrations, duplicate, two times independently; agonist/activator activity; read-out: Luciferase Assay EC50
Description: The purpose of this experiment was to evaluate the GFRα1-RET activity of the compounds 001-060 according to the invention.
The compounds were tested for their activating activity of Elk1 signaling using the previously developed reporter-gene-based system in cells expressing GFRα1-RET (MG87 murine fibroblast stably transfected with PathDetect Elk-1, GFRα1, and RET) disclosed in Sidorova, Y. A. et al.: “Persephin signaling through GFRα1: The potential for the treatment of Parkinson's disease.” Molecular and Cellular Neuroscience, July 2010, Vol. 44, pp. 223-232. DOI: 10.1016/j.mcn.2010.03.009. For EC50 determination, a dose-response test was performed using 6 concentrations of each tested compound. Dose-response curves were fitted using the sigmoidal dose-response (variable slope) analysis in GraphPad Prism program (Graph Pad Inc) and EC50 of agonist/activator activity was calculated. Dose-response experiments were all performed in duplicate, two times independently.
The compounds were tested for their activating activity of Elk1 signaling using the same materials and methods than for the compounds according to the invention (Example 2 herein, section “Materials and methods”).

T1 sequence (P56159 25-429 limits assumed): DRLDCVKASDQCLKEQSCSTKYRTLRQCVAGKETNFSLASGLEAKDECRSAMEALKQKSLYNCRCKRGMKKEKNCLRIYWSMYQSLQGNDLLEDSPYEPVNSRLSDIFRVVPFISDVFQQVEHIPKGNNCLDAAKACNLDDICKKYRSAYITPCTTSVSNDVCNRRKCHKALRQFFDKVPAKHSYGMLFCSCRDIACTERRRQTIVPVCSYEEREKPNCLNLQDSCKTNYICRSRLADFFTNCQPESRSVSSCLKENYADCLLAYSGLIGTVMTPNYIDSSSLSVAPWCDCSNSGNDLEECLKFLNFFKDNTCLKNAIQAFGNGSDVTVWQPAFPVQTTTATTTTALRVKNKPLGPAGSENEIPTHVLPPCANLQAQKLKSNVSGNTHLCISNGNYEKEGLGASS
T1 sequence (P07949 29-1114 partner): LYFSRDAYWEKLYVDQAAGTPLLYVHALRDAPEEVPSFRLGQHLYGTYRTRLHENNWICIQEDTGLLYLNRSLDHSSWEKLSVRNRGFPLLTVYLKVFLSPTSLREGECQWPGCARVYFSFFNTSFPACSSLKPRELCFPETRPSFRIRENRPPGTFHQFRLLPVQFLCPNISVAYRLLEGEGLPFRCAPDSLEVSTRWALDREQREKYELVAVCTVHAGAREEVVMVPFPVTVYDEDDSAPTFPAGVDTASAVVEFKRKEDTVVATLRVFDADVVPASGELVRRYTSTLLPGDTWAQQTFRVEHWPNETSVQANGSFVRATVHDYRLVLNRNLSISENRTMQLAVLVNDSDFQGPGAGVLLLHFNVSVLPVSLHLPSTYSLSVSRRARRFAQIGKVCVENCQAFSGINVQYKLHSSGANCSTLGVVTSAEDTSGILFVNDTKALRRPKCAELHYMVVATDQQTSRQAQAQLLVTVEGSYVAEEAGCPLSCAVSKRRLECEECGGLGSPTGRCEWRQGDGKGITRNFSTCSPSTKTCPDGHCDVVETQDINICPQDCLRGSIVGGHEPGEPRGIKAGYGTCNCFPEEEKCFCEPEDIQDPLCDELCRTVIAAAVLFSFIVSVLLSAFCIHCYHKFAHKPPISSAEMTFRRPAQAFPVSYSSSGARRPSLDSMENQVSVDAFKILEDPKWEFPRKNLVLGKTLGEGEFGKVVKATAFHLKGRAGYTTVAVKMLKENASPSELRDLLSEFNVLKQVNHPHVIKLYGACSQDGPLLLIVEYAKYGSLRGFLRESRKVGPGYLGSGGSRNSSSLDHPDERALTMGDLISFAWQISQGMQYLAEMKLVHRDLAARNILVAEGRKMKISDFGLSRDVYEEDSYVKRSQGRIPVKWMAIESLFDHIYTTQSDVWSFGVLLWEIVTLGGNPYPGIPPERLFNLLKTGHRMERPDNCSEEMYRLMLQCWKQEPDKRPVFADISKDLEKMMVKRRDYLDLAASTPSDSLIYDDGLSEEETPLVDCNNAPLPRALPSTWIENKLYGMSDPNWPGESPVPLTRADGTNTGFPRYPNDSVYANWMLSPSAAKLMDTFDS

SMILES	EC50 [µM]
COc1ccc(S(=O)(=O)N2CCCC(OCc3ccccc3)C2)cc1N1CCN(C(=O)c2ccc(F)cc2Cl)CC1 (stereo not shown) [Compound 038, (2-chloro-4-fluoro-phenyl)-[4-[2-methoxy-5-[[3-benzyloxy-1-piperidyl]sulfonyl]phenyl]piperazin-1-yl]methanone]	1 to 5
Cc1cc(S(=O)(=O)N2CCC(c3ccc(F)cc3)CC2)cc(N2CCN(C(=O)c3ccc(F)cc3Cl)CC2)c1O [Compound 056, (2-chloro-4-fluoro-phenyl)-[4-[5-[[4-(4-fluorophenyl)-1-piperidyl]sulfonyl]-2-hydroxy-3-methyl-phenyl]piperazin-1-yl]methanone]	< 1
CCCN(C)S(=O)(=O)c1ccc(OCCOC)c(N2CCN(C(=O)c3ccc(F)cc3C(F)(F)F)CC2)c1 [Compound 046, 3-[4-[4-fluoro-2-(trifluoromethyl)benzoyl]piperazin-1-yl]-4-(2-methoxyethoxy)-N-methyl-N-propyl-benzenesulfonamide]	5 to 10
O=C(c1ccc(F)cc1Cl)N1CCN(c2cc(S(=O)(=O)N3CCC(F)CC3)cc(Cl)c2O)CC1 [Compound 057, (2-chloro-4-fluoro-phenyl)-[4-[3-chloro-5-[(4-fluoro-1-piperidyl)sulfonyl]-2-hydroxy-phenyl]piperazin-1-yl]methanone]	1 to 5
CCCN(C)S(=O)(=O)c1ccc(OCc2ccccc2)c(N2CCN(C(=O)c3ccc(F)cc3C(F)(F)F)CC2)c1 [Compound 047, 4-benzyloxy-3-[4-[4-fluoro-2-(trifluoromethyl)benzoyl]piperazin-1-yl]-N-methyl-N-propyl-benzenesulfonamide]	1 to 5
COc1ccc(S(=O)(=O)NC2C3CC4CC(C3)CC2C4)cc1N1CCN(C(=O)c2ccc(F)cc2Cl)CC1 (stereo not shown) [Compound 034, N-(2-adamantyl)-3-[4-(2-chloro-4-fluoro-benzoyl)piperazin-1-yl]-4-methoxy-benzenesulfonamide]	5 to 10

Other lines, results leading:

EC50 [µM]	SMILES
10 to 50	COc1ccc(S(=O)(=O)N2CC3CN(C(=O)OC(C)(C)C)CC3C2)cc1N1CCN(C(=O)c2ccc(F)cc2Cl)CC1 (stereo not shown) [Compound 022, tert-butyl 5-[3-[4-(2-chloro-4-fluoro-benzoyl)piperazin-1-yl]-4-methoxy-phenyl]sulfonyl-1,3,3a,4,6,6a-hexahydropyrrolo[3,4-c]pyrrole-2-carboxylate]
1 to 5	COc1ccc(S(=O)(=O)NC2(C)CCCCC2)cc1N1CCN(C(=O)c2ccc(F)cc2Cl)CC1 [Compound 035, 3-[4-(2-chloro-4-fluoro-benzoyl)piperazin-1-yl]-4-methoxy-N-(1-methylcyclohexyl)benzenesulfonamide]
1 to 5	COc1ccc(S(=O)(=O)N2CCCC2(C)C)cc1N1CCN(C(=O)c2ccc(F)cc2Cl)CC1 [Compound 060, (2-chloro-4-fluoro-phenyl)-[4-[5-(2,2-dimethylpyrrolidin-1-yl)sulfonyl-2-methoxy-phenyl]piperazin-1-yl]methanone]
5 to 10	COc1ccc(S(=O)(=O)N2CCC(Cc3ccccc3)C2)cc1N1CCN(C(=O)c2ccc(F)cc2Cl)CC1 (stereo not shown) [Compound 029, (2-chloro-4-fluoro-phenyl)-[4-[2-methoxy-5-[3-benzylpyrrolidin-1-yl]sulfonyl-phenyl]piperazin-1-yl]methanone]
